Reference: US12528777B2, “Quinazolinones derivatives for treatment of non-alcoholic fatty liver disease, preparation and use thereof” (Council of Scientific and Industrial Research, priority 2020, dated 2026)
“Also recorded” adds a separate entry of the source.

Tests used:
ATGL [1] = assay: ATGL level in primary mouse hepatocytes (western blot); type: cell-based; conditions: 24 hours
Procedure: (§1) To further strengthen the efficiency of the compounds 9 and 107, primary hepatocytes were isolated from mice and these compounds were treated in a dose dependent manner for 24 hours. Primary hepatocytes and adipose tissue explants were isolated from mice and subjected to compound treatment for 24 hours at the doses of 100 nM, 500 nM and 1 μM. Post cell harvesting, western blot was carried out with the lysate to check the ATGL level. ATGL and COP1 antibodies were used. Actin served the purpose of a loading control.
(§2) 1. Hepatocytes—2-4 months old chow-fed black male mouse (C57bl/6) was sacrificed using chloroform (SRL) and was cleaned with 70% ethanol. […] Blood was drawn from the heart in order to prevent backflow into liver while perfusion. The butterfly cannula was inserted into the PV and 20 ml of HBSS (Hank's Balanced Salt Solution; 5 mM KCl, 0.4 mM KH2PO4, 4 mM NaHCO3, 140 mM NaCl, 0.3 mM Na2HPO4, 6 mM Glucose, HEPES, 0.5 mM MgCl2·6H2O, 0.4 mM MgSO4·7H2O, 0.5 mM EDTA; not containing 1 mM CaCl2)) was allowed to pass through the liver (Perfusion) at a constant flow rate of 3 ml/min, maintained by Masterflex digital peristaltic pump (Cole-Parmer). The IVC was cut as soon as the passage of the buffer through the liver began, so that blood and perfusate from liver is drained through the IVC. The liver blanched and became pale in color upon this treatment.
After the passage of HBSS, 25 ml of Collagenase (Roche) solution (1 mg/ml) in HBSS (containing 1 mM CaCl2)) was allowed to pass through the liver at a constant flow rate of 2 ml/min. After this digestion, the flow was stopped, the cannula removed and the pale and soggy lobes of the liver were gently excised from the body. The gall bladder was removed from the isolated liver. The pieces of digested liver tissue were then minced on a 10 cm culture plate in HBSS (containing 1 mM CaCl2)). The resulting suspension was then passed through a […] cell strainer (SPL) to allow hepatocytes to pass through to the filtrate and retain cellular clumps and undigested tissue. The filtrate was centrifuged at 50 g for 2 minutes at 4° C. […]

ATGL [2] = assay: ATGL level in mouse adipose tissue explants (western blot); type: cell-based; conditions: 24 hours, 100 nM, 500 nM and 1 μM
Procedure: as §1
2. Adipocytes—2-4 months old chow-fed black male mouse (C57bl/6) was sacrificed using chloroform (SRL) and was cleaned with 70% ethanol. Under aseptic conditions, the ventral side of the mouse was cut open, and gonadal (epididymal) white adipose tissue were excised using scissors and suspended in 1×PBS supplemented with 0.1% BSA in a 10 cm culture plate. The attached blood vessels were removed and the adipose tissue was minced as much as possible. The suspension was centrifuged at 50 g for 2 minutes at 4° C. After centrifugation, the adipose tissue pieces suspended at the uppermost layer of the supernatant as emulsion were carefully extracted and plated in DMEM in 35 mm culture dishes. The explant tissue thus obtained was treated with different concentrations of compounds after 6-7 hours.

ATGL [3] = assay: In vivo study: ATGL level in mouse liver; parameters: species or system C57BL/6 mice; conditions: 30 mg/kg orally
Procedure: 6-8 weeks old healthy female C57BL/6 mice (average weight: 25 grams) were taken for the study. These were then divided into three groups comprising of three mice per group (Control, compound 107 fed for 8 hours and compound 107 fed for 16 hours). Mice were fed with 30 mg/kg of compound 107 orally. The compound was dissolved in 25% DMSO and 75% PBS. The control group was fed only with the solvent in which the compound was dissolved. Post 8 hours and 16 hours of feeding, mice were sacrificed and a portion of the excised liver tissue was homogenized in lysis buffer containing protease inhibitor cocktail. The homogenate was centrifuged at 20,000 g for 30 minutes following which the supernatant containing the protein lysate was collected. The lysate was then diluted accordingly and protein estimation was carried out by Bradford Assay. This was followed by Western Blotting wherein the levels of ATGL and COP1 were checked. Actin was used as the loading control.

COP1 = COP1 (Mus musculus, UniProt Q9R1A8); assay: COP1 level in primary mouse hepatocytes (western blot); type: cell-based; parameters: endogenous in cells; host or cells: primary mouse hepatocytes (C57bl/6); conditions: 24 hours
Procedure: as §1
as §2, with “treatment. […]” for “treatment.”

ATGL [4] = assay: Reversal of ATGL decrease in COP1 overexpressing HepG2 cells; type: cell-based; conditions: myc-DDK-COP1, 5 μM, 24 hours
Procedure: COP1 is an E3 ubiquitin ligase with ATGL as one of its targets for ubiquitination and subsequent proteasomal degradation by 26S proteasome. Therefore, it is only legit for ATGL levels to decrease upon COP1 overexpression. To this end, HepG2 cells were transfected with 500 ng of myc-DDK-COP1 plasmid using Lipofectamine 2000 and treated with 5 μM of the compounds 9 and 10 for 24 hours. 48 hours post transfection, cells were harvested and western blot was carried out.

Sequence of COP1 (Q9R1A8 whole entry): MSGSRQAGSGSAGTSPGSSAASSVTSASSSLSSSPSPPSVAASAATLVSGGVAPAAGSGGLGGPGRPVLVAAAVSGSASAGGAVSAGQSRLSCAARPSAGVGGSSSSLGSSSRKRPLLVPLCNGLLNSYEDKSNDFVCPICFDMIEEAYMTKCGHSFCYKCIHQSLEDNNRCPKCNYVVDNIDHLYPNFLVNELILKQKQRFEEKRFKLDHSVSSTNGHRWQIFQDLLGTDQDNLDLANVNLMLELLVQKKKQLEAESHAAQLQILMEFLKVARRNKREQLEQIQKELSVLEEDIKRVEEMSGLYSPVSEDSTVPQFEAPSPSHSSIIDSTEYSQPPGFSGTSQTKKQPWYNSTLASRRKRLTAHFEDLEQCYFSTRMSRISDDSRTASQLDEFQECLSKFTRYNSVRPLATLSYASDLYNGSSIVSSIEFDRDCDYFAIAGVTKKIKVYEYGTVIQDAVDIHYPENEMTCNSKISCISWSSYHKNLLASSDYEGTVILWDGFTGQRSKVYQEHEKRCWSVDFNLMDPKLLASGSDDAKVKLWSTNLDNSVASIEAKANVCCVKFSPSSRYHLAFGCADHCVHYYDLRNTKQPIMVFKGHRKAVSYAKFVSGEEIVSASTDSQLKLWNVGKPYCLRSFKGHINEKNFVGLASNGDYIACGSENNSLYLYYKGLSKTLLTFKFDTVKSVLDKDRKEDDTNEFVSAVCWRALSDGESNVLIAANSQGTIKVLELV

| Structure (SMILES) | ATGL level in primary mouse hepatocytes (ATGL [1]) | ATGL level in mouse adipose explants (ATGL [2]) | ATGL level in liver, 8 hours after feeding (ATGL [3]; 8 hours) | ATGL level in liver, 16 hours after feeding (ATGL [3]; 16 hours) | COP1 level in primary mouse hepatocytes (COP1) | Restoration of ATGL level upon COP1 overexpression (ATGL [4]) |
| --- | --- | --- | --- | --- | --- | --- |
| COCCn1c(C)nc2ccc(NC(=O)Nc3cccc(C(C)=O)c3)cc2c1=O [Compound 107, 1-(3-acetylphenyl)-3-(3-(2-methoxyethyl)-2-methyl-4-oxo-3,4-dihydroquinazolin-6-yl)urea] | increase ATGL level; also recorded: subtle inclination towards increasing ATGL level | no such changes were observed; also recorded: this effect was absent; also recorded: did not show any significant changes in ATGL protein | modestly increase ATGL level; also recorded: no significant impact | modestly increase ATGL level; also recorded: effective in increasing ATGL and COP1 levels |  |  |
| COCCn1c(CN2CCCCC2)nc2ccc(NC(=O)Nc3cccc(C(C)=O)c3)cc2c1=O [Compound 238, 1-(3-acetylphenyl)-3-(3-(2-methoxyethyl)-4-oxo-2-(piperidin-1-ylmethyl)-3,4-dihydroquinazolin-6-yl)urea] | increase ATGL and COP1 levels dose dependently; also recorded: enhance ATGL levels at 1 μM and 5 μM doses |  |  |  | increase ATGL and COP1 levels dose dependently; also recorded: increased only with 5 μM concentration |  |
| COCCn1cnc2ccc(NC(=O)Nc3cccc(C(C)=O)c3)cc2c1=O [Compound 9, 1-(3-acetylphenyl)-3-(3-(2-methoxyethyl)-4-oxo-3,4-dihydroquinazolin-6-yl)urea] | increase ATGL level; also recorded: subtle inclination towards increasing ATGL level | no such changes were observed; also recorded: this effect was absent; also recorded: did not show any significant changes in ATGL protein |  |  |  | could restore the reduced ATGL level; also recorded: could restore ATGL to its normal level |
